Source: paper PMC8760230, “Translational Development of a Zr-89-Labeled Inhibitor of Prostate-specific Membrane Antigen for PET Imaging in Prostate Cancer” (Molecular Imaging and Biology, 2021)
“Also recorded” adds a separate entry of the source. Like-named read-outs stand apart in the source and are kept apart here. Each block holds one compound with its values, some of them ahead of it.

Experiments:
[1] = system: LNCaP cells; assay: Internalization in LNCaP cells; format: cell-based; conditions: n=3
Description: (§1) The cell binding determined in these experiments is the sum of specific and nonspecific cell binding. To determine the values for nonspecific cell binding and internalization, all experiments were additionally performed in the presence of 2-PMPA.
(§2) The plates were incubated for 1 h; after which, 0.75 pmol of the radiotracer to be examined was added to 1 ml of fresh medium. The cells were incubated for 30 min, 1, 2, 3, and 5 h. At each time point, the supernatant was removed and the cells washed with 1 ml of PBS. To dissociate the receptor-bound radioligand, the cells were washed twice with 1 ml of a 0.1 M glycine buffer solution at pH 2.8 for 5 min. The 0.1 M glycine–HCl buffer dissociated all the surface-bound complexes. The cells were then washed with 1 ml of PBS, and the internalized fraction was determined by solubilizing the cells with 1 ml of 1 M NaOH and incubating them for 10 min at room temperature. The radioactivity collected from the culture medium, 0.1 M glycine (surface-bound), and 1 M NaOH (internalized fraction) was measured in a gamma counter and decay-corrected. Cell binding was calculated from the surface-bound (0.1 M glycine) and the internalized fraction (1 M NaOH). The internalized fraction was expressed as a percentage of cell binding (internalization to cell-bound radioactivity ratio). All cell uptake experiments were run in triplicate.

[2] = system: LNCaP cells; assay: Cellular uptake (specific cell binding) in LNCaP cells; format: cell-based; conditions: n=3
Description: as §1, §2

[3] = system: LNCaP tumor xenografts; conditions: for Tumor/blood ratio / Tumor/kidneys ratio / Tumor/liver ratio / Tumor/muscle ratio: LNCaP xenograft mice; for Biodistribution Blood / Biodistribution Bone / Biodistribution Heart / Biodistribution Intestine / Biodistribution Kidneys / Biodistribution LNCAP-tumor / Biodistribution Liver / Biodistribution Lung / Biodistribution Muscle / Biodistribution Prostate / Biodistribution Spleen / Biodistribution Thyroid: i.v. 30 pmol, n=5
[4] = molecular target: T1, PSMA (Homo sapiens, UniProt Q04609); assay: Equilibrium dissociation constant Kd / Bmax, saturation binding on PSMA-positive LNCaP cells; conditions: for Kd: 3 h incubation, 0.25-75 nM, nonspecific binding with 2-PMPA; for Bmax (maximum achievable concentration on 10^6 tumor cells): Scatchard plots
T1 construct: host or cells: LNCaP cells
T1 sequence (Q04609 whole entry): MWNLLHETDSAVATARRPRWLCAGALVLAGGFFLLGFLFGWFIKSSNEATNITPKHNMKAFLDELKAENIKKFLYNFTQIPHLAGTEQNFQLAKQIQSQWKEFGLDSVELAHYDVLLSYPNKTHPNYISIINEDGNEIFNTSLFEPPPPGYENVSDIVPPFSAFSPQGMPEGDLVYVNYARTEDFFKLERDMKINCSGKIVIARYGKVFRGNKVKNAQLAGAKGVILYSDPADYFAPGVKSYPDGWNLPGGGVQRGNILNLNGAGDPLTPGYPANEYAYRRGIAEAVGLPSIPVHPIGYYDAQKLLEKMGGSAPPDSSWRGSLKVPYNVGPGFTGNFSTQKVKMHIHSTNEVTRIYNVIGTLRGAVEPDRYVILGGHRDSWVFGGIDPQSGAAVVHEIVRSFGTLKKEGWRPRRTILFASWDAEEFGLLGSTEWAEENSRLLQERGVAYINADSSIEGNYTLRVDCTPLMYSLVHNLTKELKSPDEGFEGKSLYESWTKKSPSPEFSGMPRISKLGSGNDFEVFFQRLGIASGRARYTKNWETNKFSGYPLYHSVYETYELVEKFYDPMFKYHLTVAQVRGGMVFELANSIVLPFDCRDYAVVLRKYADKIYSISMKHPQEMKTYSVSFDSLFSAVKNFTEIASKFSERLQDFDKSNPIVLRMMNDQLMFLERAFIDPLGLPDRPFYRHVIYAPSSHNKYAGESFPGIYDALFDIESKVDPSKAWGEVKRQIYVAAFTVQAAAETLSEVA
Description: The equilibrium dissociation constant describing the interaction of the radiolabeled ligands with the PSMA binding sites was determined in PSMA-positive LNCaP cell lines (Cell Line Service, Eppelheim, Germany). LNCaP cells were seeded at a density of 10^6 cells/well on a 6-well plate (Corning, ME, USA) and incubated under 5% CO2 at 37 °C for 48 h with medium (minimum essential medium Eagle supplemented with 2 mM L-glutamine, 0.1 mM non-essential amino acids (NEAA), 1.0 mM sodium pyruvate, 10% fetal bovine serum, 100 U/ml penicillin, and 100 µg/ml streptomycin) (Lonza, Verviers, Belgium) in a humidified incubator (Thermo Heracell 150 CO2-Incubator, MA, USA). To determine the nonspecific binding, the medium was removed from selected wells, and 1 ml of a solution of 0.1 mM of 2-(phosphonomethyl)-pentanedioic acid (2-PMPA) in fresh medium was added. […] The plates were then incubated under 5% CO2, at 37 °C for 1 h. After that, the medium was removed and the cells incubated under the same incubation conditions for 3 h with different concentrations (0.25 nM, 2.5 nM, 5 nM, 10 nM, 25 nM, 50 nM, and 75 nM) of the radiotracer under investigation in 1 ml fresh medium.
After 3 h, the cells were washed three times with 1 ml PBS, and the cells were finally lysed by adding 1 ml of 1 M NaOH and incubating them for 10 min at room temperature. All samples were measured with a gamma counter (Nuklear Medizintechnik Dresden Isomed 100, Dresden, Germany) and were decay-corrected. The equilibrium dissociation constant (Kd) and the maximum density of receptors (Bmax) were calculated by non-linear regression using GraphPad Prism 8.0.2 (GraphPad Software, San Diego, USA).

[5] = system: LNCaP tumor xenograft; assay: Small-animal PET in mice bearing an LNCaP tumor xenograft, with and without blocking by 2-PMPA; conditions: 2-PMPA 23 mg/kg, n=3 per group
[6] = system: prostate cancer relapse; assay: First-in-human PET/CT scan in a patient with biochemical recurrence of prostate cancer; conditions: 2 h p.i., 343 MBq
Description: The patient had given their written informed consent for PET imaging and the scientific evaluation of their data. All procedures were performed in accordance with the Institutional Review Board and the regulations of the regional authorities in Cologne. The kidney dose was estimated on the basis of two PET scans. The following assumptions were made for the estimation: Between time 0 (injection) and the first measuring point, the time-activity-curve follows a constant progression. All measuring points were integrated numerically using trapezoidal approximation. From the last measuring point to infinity, a mono-exponential function was fitted and integrated. As the effective half-life could not be accurately determined from two measurement points, the physical half-life of Zr-89 was used instead.

- Tumor/blood ratio ([3]; 2 h p.i.): 15 ± 3
- Tumor/kidneys ratio ([3]; 2 h p.i.): 0.09 ± 0.02
- Tumor/liver ratio ([3]; 2 h p.i.): 6.2 ± 1.0
- Tumor/muscle ratio ([3]; 2 h p.i.): 37 ± 8
- Biodistribution Blood ([3]; 2 h p.i.): 1.34 ± 0.20 %ID/g
- Biodistribution Bone ([3]; 2 h p.i.): 1.19 ± 0.31 %ID/g
- Biodistribution Heart ([3]; 2 h p.i.): 1.10 ± 0.36 %ID/g
- Biodistribution Intestine ([3]; 2 h p.i.): 1.50 ± 0.59 %ID/g
- Biodistribution Kidneys ([3]; 2 h p.i.): 231 ± 41 %ID/g
- Biodistribution LNCAP-tumor ([3]; 2 h p.i.): 19.4 ± 2.4 %ID/g
- Biodistribution Liver ([3]; 2 h p.i.): 3.17 ± 0.18 %ID/g
- Biodistribution Lung ([3]; 2 h p.i.): 3.27 ± 1.03 %ID/g
- Biodistribution Muscle ([3]; 2 h p.i.): 0.54 ± 0.15 %ID/g
- Biodistribution Prostate ([3]; 2 h p.i.): 4.09 ± 1.15 %ID/g
- Biodistribution Spleen ([3]; 2 h p.i.): 40.9 ± 9.3 %ID/g
- Biodistribution Thyroid ([3]; 2 h p.i.): 2.13 ± 0.27 %ID/g
- Tumor/kidneys ratio ([3]; 4 h p.i.): 0.10 ± 0.05
- Tumor/liver ratio ([3]; 4 h p.i.): 34.6 ± 6.6
- Biodistribution Blood ([3]; 4 h p.i.): 0.21 ± 0.03 %ID/g
- Biodistribution Bone ([3]; 4 h p.i.): 0.50 ± 0.19 %ID/g
- Biodistribution Heart ([3]; 4 h p.i.): 1.35 ± 0.70 %ID/g
- Biodistribution Intestine ([3]; 4 h p.i.): 0.65 ± 0.30 %ID/g
- Biodistribution Kidneys ([3]; 4 h p.i.): 226 ± 25 %ID/g
- Biodistribution LNCAP-tumor ([3]; 4 h p.i.): 23.2 ± 10.6 %ID/g
- Biodistribution Liver ([3]; 4 h p.i.): 0.65 ± 0.21 %ID/g
- Biodistribution Lung ([3]; 4 h p.i.): 1.23 ± 0.13 %ID/g
- Biodistribution Muscle ([3]; 4 h p.i.): 0.42 ± 0.11 %ID/g
- Biodistribution Prostate ([3]; 4 h p.i.): 1.67 ± 0.37 %ID/g
- Biodistribution Spleen ([3]; 4 h p.i.): 62.5 ± 21.5 %ID/g
- Biodistribution Thyroid ([3]; 4 h p.i.): 4.44 ± 2.9 %ID/g
- Kd [4]: 5.15 ± 0.6 nM
- Bmax (maximum achievable concentration on 10^6 tumor cells) [4]: 1746 ± 53 fmol/10^6 cells
Structure (SMILES): O=C([O-])CN(CCN(CC(=O)[O-])Cc1cc(CCC(=O)NCCCCCC(=O)NCCCC[C@H](NC(=O)N[C@@H](CCC(=O)O)C(=O)O)C(=O)O)ccc1[O-])Cc1cc(CCC(=O)O)ccc1[O-].[68Ga+3].[OH3+] [[^68Ga]Ga-PSMA-11]
- Specific internalized activity as percentage of specific cell-bound activity ([1]; 0.5 h): 28.9±0.7%
- Specific internalized activity as percentage of specific cell-bound activity ([1]; 1 h): 39.7±2.0%
- Specific internalized activity as percentage of specific cell-bound activity ([1]; 2 h): 48.3±2.5%
- Specific internalized activity as percentage of specific cell-bound activity ([1]; 3 h): 50.5±3.4%
- Specific internalized activity as percentage of specific cell-bound activity ([1]; 5 h): 56.8±2.2 %
- Specific binding in LNCaP cells as percentage of total activity ([2]; 0.5 h): 27.7±0.7%
- Specific binding in LNCaP cells as percentage of total activity ([2]; 1 h): 35.3±3.1 %
- Specific binding in LNCaP cells as percentage of total activity ([2]; 2 h): 42.0±1.2 %
- Specific binding in LNCaP cells as percentage of total activity ([2]; 3 h): 46.3±2.1%
- Specific binding in LNCaP cells as percentage of total activity ([2]; 5 h): 48.3±1.2%

Structure (SMILES): O=C(O)CCC(CP(=O)(O)O)C(=O)O (stereo not shown) [2-PMPA, 2-(phosphonomethyl)-pentanedioic acid]
- Effect of blocking on accumulation of [^89Zr]Zr-PSMA-DFO radioactivity in the liver ([5]; 1 h, 21 h and 48 h): significantly increased; also recorded: radioactivity accumulated in the liver
- Effect of blocking on accumulation of [^89Zr]Zr-PSMA-DFO radioactivity in the kidneys ([5]; significant after 1 h): significantly reduced
- Effect of blocking on tumor accumulation of [^89Zr]Zr-PSMA-DFO ([5]; significant after 1 h): strongly reduced; also recorded: markedly reduced

Structure (SMILES): CC(=O)N1CCCCCNC(=O)CCC(=O)N2CCCCCNC(=O)CCC(=O)N(CCCCCNC(=O)CCC(=O)NCC3CCC(C(=O)NC(Cc4ccc5ccccc5c4)C(=O)NCCCCC(NC(=O)NC(CCC(=O)O)C(=O)O)C(=O)O)CC3)[O][Zr+]([O]1)[O]2 (stereo not shown) [[^89Zr]Zr-PSMA-DFO, [^89Zr]Zr-N-sucDf-AMCHA-2Nal-EuK]
- Kd [4]: 4.97 ± 0.57 nM

- Tumor/blood ratio ([3]; 2 h p.i.): 142 ± 24
- Tumor/kidneys ratio ([3]; 2 h p.i.): 0.74 ± 0.08
- Tumor/liver ratio ([3]; 2 h p.i.): 4.7 ± 1.2
- Tumor/muscle ratio ([3]; 2 h p.i.): 282 ± 71
- Biodistribution Blood ([3]; 2 h p.i.): 0.15 ± 0.04 %ID/g
- Biodistribution Bone ([3]; 2 h p.i.): 0.18 ± 0.03 %ID/g
- Biodistribution Heart ([3]; 2 h p.i.): 0.12 ± 0.02 %ID/g
- Biodistribution Intestine ([3]; 2 h p.i.): 0.89 ± 0.18 %ID/g
- Biodistribution Kidneys ([3]; 2 h p.i.): 27.2 ± 2.6 %ID/g
- Biodistribution LNCAP-tumor ([3]; 2 h p.i.): 20.2 ± 2.4 %ID/g
- Biodistribution Lung ([3]; 2 h p.i.): 0.18 ± 0.01 %ID/g
- Biodistribution Muscle ([3]; 2 h p.i.): 0.07 ± 0.02 %ID/g
- Biodistribution Prostate ([3]; 2 h p.i.): 0.22 ± 0.03 %ID/g
- Biodistribution Spleen ([3]; 2 h p.i.): 2.15 ± 0.45 %ID/g
- Biodistribution Thyroid ([3]; 2 h p.i.): 0.19 ± 0.02 %ID/g
- Tumor/liver ratio ([3]; 4 h p.i.): 5.7 ± 0.7
- Biodistribution Blood ([3]; 4 h p.i.): 0.12 ± 0.03 %ID/g
- Biodistribution Bone ([3]; 4 h p.i.): 0.20 ± 0.03 %ID/g
- Biodistribution Heart ([3]; 4 h p.i.): 0.10 ± 0.02 %ID/g
- Biodistribution Intestine ([3]; 4 h p.i.): 1.53 ± 0.31 %ID/g
- Biodistribution Kidneys ([3]; 4 h p.i.): 26.0 ± 3.5 %ID/g
- Biodistribution LNCAP-tumor ([3]; 4 h p.i.): 21.3 ± 1.5 %ID/g
- Biodistribution Liver ([3]; 4 h p.i.): 3.75 ± 0.50 %ID/g
- Biodistribution Lung ([3]; 4 h p.i.): 0.18 ± 0.04 %ID/g
- Biodistribution Muscle ([3]; 4 h p.i.): 0.19 ± 0.03 %ID/g
- Biodistribution Prostate ([3]; 4 h p.i.): 0.60 ± 0.16 %ID/g
- Biodistribution Spleen ([3]; 4 h p.i.): 1.57 ± 0.22 %ID/g
- Biodistribution Thyroid ([3]; 4 h p.i.): 0.20 ± 0.02 %ID/g
- Kd [4]: 5.07 ± 0.45 nM
- Bmax (maximum achievable concentration on 10^6 tumor cells) [4]: 2702 ± 61 fmol/10^6 cells
- SUVmax left prostate lobe [6]: 4.63
- SUVmax right prostate lobe [6]: 5.37
Structure (SMILES): COc1nc([18F])ccc1C(=O)NCCCCC(NC(=O)NC(CCC(=O)O)C(=O)O)C(=O)O (stereo not shown) [[^18F]F-JK-PSMA-7]
- Specific internalized activity as percentage of specific cell-bound activity ([1]; 0.5 h): 19.6±1.3 %
- Specific internalized activity as percentage of specific cell-bound activity ([1]; 1 h): 33.9±1.6 %
- Specific internalized activity as percentage of specific cell-bound activity ([1]; 2 h): 44.3±2.5%
- Specific internalized activity as percentage of specific cell-bound activity ([1]; 3 h): 46.0±2.2%
- Specific internalized activity as percentage of specific cell-bound activity ([1]; 5 h): 48.6±0.9 %
- Specific binding in LNCaP cells as percentage of total activity ([2]; 0.5 h): 23.8±0.6 %
- Specific binding in LNCaP cells as percentage of total activity ([2]; 1 h): 32.6±0.4 %
- Specific binding in LNCaP cells as percentage of total activity ([2]; 2 h): 38.8±1.3 %
- Specific binding in LNCaP cells as percentage of total activity ([2]; 3 h): 45.2±1.9 %
- Specific binding in LNCaP cells as percentage of total activity ([2]; 5 h): 45.8±0.4 %
